The target of one series is T1, COX-2 (Homo sapiens, UniProt P35354).
T1 sequence (P35354 18-604): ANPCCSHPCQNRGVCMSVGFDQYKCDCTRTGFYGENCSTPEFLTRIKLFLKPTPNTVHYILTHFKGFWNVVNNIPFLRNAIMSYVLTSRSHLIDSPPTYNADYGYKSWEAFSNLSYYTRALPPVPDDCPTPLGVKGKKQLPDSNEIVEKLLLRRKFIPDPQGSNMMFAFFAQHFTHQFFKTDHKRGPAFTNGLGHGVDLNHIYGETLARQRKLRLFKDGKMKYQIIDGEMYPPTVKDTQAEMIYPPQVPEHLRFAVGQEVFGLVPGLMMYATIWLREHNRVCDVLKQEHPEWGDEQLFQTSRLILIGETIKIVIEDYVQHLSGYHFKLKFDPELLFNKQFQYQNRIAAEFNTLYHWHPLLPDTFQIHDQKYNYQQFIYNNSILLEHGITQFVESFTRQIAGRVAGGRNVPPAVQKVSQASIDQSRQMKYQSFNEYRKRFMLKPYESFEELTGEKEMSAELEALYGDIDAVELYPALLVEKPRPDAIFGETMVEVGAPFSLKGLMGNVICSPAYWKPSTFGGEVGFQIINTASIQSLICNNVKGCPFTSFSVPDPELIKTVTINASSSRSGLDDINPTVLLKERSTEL
The conditions noted are these: cited from earlier work.

The conditions of series [1]: cited from earlier work.
In series [2] the test system is 6-OHDA treated zebrafish larvae. In words: Locomotor behavior rescue (total distance moved, number of jumps) in 6-OHDA zebrafish PD model. The conditions noted are these: for Optimal concentration: behavioral experiments and TH+ cell counts. Format: in vivo. The text has this: To model Parkinson ̆s disease (PD), a neurotoxin 6-OHDA (6-hyroxydopamine) based method was used in zebrafish and in mice. In this model, 6-OHDA-lesions induce motor manifestations in zebrafish and in mice, such as reduced locomotor ability, and the loss of dopaminergic neurons. Based on the 6-OHDA PD zebrafish model, compounds from a small molecules library were screened for rescue of the parkinsonian phenotype (Example 1, see below).
The screen was based on both the recovery of impaired locomotor behavior and dopaminergic neuronal loss.
Values were normalized for the mean of disease state in each experiment (disease=1). Each plot contains data from 3 independent experiments with a total of 24 larvae. As a control, zebrafish were treated with only the vehicle, ascorbic acid.
For these experiments, Tubingen (TU) wild-type zebrafish, a specific strain of wild-type zebrafish, were used.

For series [3] the following is noted: in DMSO; cited from earlier work.
Series [4] concerns 6-OHDA treated zebrafish larvae. Kind of series: Rescue of Tyrosine hydroxylase (TH)-positive dopaminergic neurons in 6-OHDA zebrafish larvae. Format: in vivo. The conditions noted are these: for Neurorescue: TH+ neurons at optimal dose, p. The protocol: The 7 candidates also were tested in terms of rescue of dopaminergic neurons positive for Tyrosine hydroxylase (Th) in the substancia nigra pars compacta of the test animals. […] Results were normalized for healthy control values (healthy control=100% of neurons). As a control, zebrafish were treated with only the vehicle, ascorbic acid. ‘6-OHDA_ represents results in zebrafish receiving no treatment.
FIGS. 6E-6G show representative Z-projections of confocal stacks of whole-mount anti-TH immunohistochemistry in 6 days post-fertilization (dpf) of zebrafish larvae (age of the fish) control (FIG. 6E), 6-OHDA (FIG. 6F), and tapentadol treated-larvae (FIG. 6G).

The test system is the same in series [5]. In words: Co-administration with L-Dopa, total distance 6-OHDA larvae move. Format: in vivo. The conditions noted are these: total distance; L-Dopa 250 or 125 μM.
Series [6] shares this test system. Kind of series: Freezing (duration of freezing periods, light/dark stimulus) in 6-OHDA zebrafish larvae. Format: in vivo. The conditions noted are these: for Freezing recovery: optimal concentrations, methylphenidate 25 μM. The protocol: In the zebrafish model, the locomotor impairment was measured and related with bradykinesia in patients. Tests included evaluating ‘freezing_ in response to a light/dark stimulus. 6-OHDA induced larvae had fewer freezing episodes but spent longer periods in the frozen state. In previous studies, the duration of freezing episodes has been analyzed in PD patients. […] Nonetheless, it is an inhibitor of the neuronal dopamine transporter and since 6-OHDA needs DAT to enter the neuron and induce the disease, methylphenidate may be a false positive.
As FIGS. 9B-9C show, freezing recovery was tested using 7 candidate molecules at optimal concentrations, in an exemplary experiment with n=8 fish, and methylphenidate and amantadine at 25 ? M.

A further series concerns mouse. The conditions noted are these: mouse; cited from earlier work.
The test system of series [7] is 6-OHDA treated zebrafish larvae. In words: LD50 / lethality in the disease context of the zebrafish model.
For another series, the system named is rat. The conditions noted are these: rat; cited from earlier work.
For series [8] the following is noted: in vivo; cited from earlier work.
The conditions of series [9]: cited from earlier work. This is another data set of the same source.
A further series relates to healthy wild type mice. Kind of series: Toxicity assay, welfare and necropsy (Example 6). The conditions noted are these: tramadol 10 mg/kg in combination with L-Dopa; L-Dopa 18 mg/kg; 24 h. On the procedure: Their behavior was evaluated with open field tests for 1 h after i.p. injection. After 24 h, animals were sacrificed and necropsy was performed
9 week old NMRI female mice were used for this assay. Animals were tested for their welfare after two intraperitoneal injections of the test agents using the open field test. Necropsy was done after cervical dislocation. […] Benserazide at 12 mg/kg was administered 30 minutes prior to administration of these compounds, in all groups. Saline was given to the control group.
After benserazide administration, animals were monitored in the open field for 30 minutes for habituation. […] 24 hours after administration of the compounds, the animals were sacrificed and necropsy performed.
For administration of the various agents to the animals, two 700 ? L injections were administered 30 minutes apart.

Where [10] appears, read: oral 1,000-2,000 mg to steady state.

Several values for one entry are separate records, joined by “and”; a condition that tells them apart may be missing. Equal values may be shown once. Entries after “also recorded” stand apart in the source; their conditions may differ. Read-outs that look alike come from different tables or passages of the source.

On to `COc1ccc2cc(CC(=O)O)ccc2c1` [6MNA, 6-methoxy-2-naphthylacetic acid], for which the “Inhibition of prostaglandin synthesis” value on COX-2 (most likely through binding to the COX-2 and COX-1 receptors) was “potent inhibitor”. The “Printed only as 'It is 0.2-0.3%' (after plasma protein binding)” value in series [1] (concentrations typically achieved following 1,000 mg of nabumetone) is reported as 0.2-0.3%. In addition, the “Bound to plasma proteins” value in series [1] (in vivo) is given as “more than 99%”. For the same molecule, in series [1] (setting [10]), the Elimination half-life entry is “approximately 24 hours” and the Mean plasma clearance is 20 to 30 mL/min.

Consider `COC(=O)C1=C(C)NC(C)=C(C(=O)OC(C)C)C1c1cccc2nonc12` (centres unmarked) [Isradipine], for which the Optimal concentration in series [2] came to 0.045 µM. Further, the “Effective concentration / peak, small range plot” value in series [2] (phenotype recovery, total distance moved) is 0.045 µM and 0.084 µM. The Solubility in series [3] is reported as 25 mg/ml in. Further, the Neurorescue entry in series [4] is given as “confirmed”. In addition, the “Effect of co-administration with L-Dopa on locomotor recovery” value in series [5] is “lost its effect”.

As for `COC(=O)C(c1ccccc1)C1CCCCN1` (centres unmarked) [Methylphenidate], the Freezing recovery entry in series [6] is recorded as “more consistent freezing recovery”.

For `COc1ccc2cc(CCC(C)=O)ccc2c1` [nabumetone], at COX-2, the COX-2 inhibition entry is given as “poor COX-2 inhibitor”. Further, in series [2] (7 candidate molecules, 3 independent experiments), the “Locomotor behavior rescue (total distance moved, number of jumps), confirmation of screen” value is given as “strong candidates”. Also, in [2], the Optimal concentration was found to be 0.9 µM. Moreover, in [2] (zebrafish, in vivo), the “Number of jumps: concentration validated as recovering the 6-OHDA induced behavior” value came to 0.456 µM; the “Total distance travelled, difference between treated larvae and disease control” value is given as approximately 200 mm. For the same molecule, in series [1] (1,000 mg oral dose), the “Share of dose converted into unidentified metabolites” value is listed as 50% and the “Share of dose converted to 6MNA” value was “Approximately 35%”. Further, in [1] (in vivo), the “Absorption from the gastrointestinal tract” value is on record as “well absorbed”. Also, the LD50 (as a rule, the dose expected to kill half of the subjects tested) with mouse was 4290 mg/kg. Also, the Freezing recovery entry in series [6] is “do not show an ability to recover freezing phenotype”. Moreover, the “Duration of freezing periods, recovery vs 6-OHDA treated larvae” value in series [6] (tapentadol 48.5, stavudine 50, nabumetone 0.91 μM, L-Dopa treatment) was “not recovered”. In addition, the Solubility in series [3] is 50 mg/ml in. Also, in series [7] (18 μM), the Embryo lethality result is reported as “no dead embryos”. Besides, in [7] (27 μM), the Embryo lethality result is recorded as “all of the embryos were dead”. Further, the Neurorescue result in series [4] is reported as “confirmed”. For the same molecule, the “Neuroprotective effect / recovery of TH+ neurons” value in series [4] (at the optimal concentration of each molecule) is listed as “confirmed; also recorded: Recovery was observed”. Further, the LD50 result in the series with rat is reported as “(mouse) or 3880 mg/kg”. The “Effect of co-administration with L-Dopa on locomotor recovery” value in series [5] was “the same”.

Take `CC[C@@H](c1cccc(O[C@@H]2O[C@H](C(=O)O)[C@@H](O)[C@H](O)[C@H]2O)c1)[C@@H](C)CN(C)C` [tapentadol-O-glucuronide]: the Blood-brain barrier crossing result in series [8] was “lower permeability through the blood brain barrier”. The “AUC, fold higher compared with normal renal function” value is 1.5 fold in series [9] (mild renal impairment (CLCR=50 to <80 mL/min)), 2.5 fold in [9] (moderate renal impairment (CLCR=30 to <50 mL/min)) and 5.5 fold in series [9] (severe renal impairment (CLCR=<30 mL/min)). For the same molecule, in series [9] (multiple (every 6 hour) dose study, 75 to 175 mg tapentadol), the Mean accumulation factor is 1.8.

On to `COc1cccc(C2(O)CCCCC2CN(C)C)c1` (centres unmarked) [tramadol], for which, in the series with healthy wild type mice, the Necropsy findings entry is “normal abdominal organs, with the exception of one that had a slight hyperemia in the small intestine”.
